Counter-ions that a name gives are not always drawn. Like-named read-outs stand apart in the source and are kept apart here.
Legend:
SGLT1 = target: T1, SGLT1 (Homo sapiens, UniProt P13866); experiment: SGLT1 inhibition assay for validation of screening hits and similar compounds (1‐NBD‐glucose uptake, CHO‐hSGLT1 cells); type: cell-based; design: activity: dose or concentration left out as unconfirmed; settings: mean; for remaining activity at 5 µM / remaining activity at 50 µM: 0.5 h, concentration not given, read-out: NORMALIZED SGLT1 ACTIVITY (%); for activity: compound, normalized 1-NBD-glucose uptake, CHO-hSGLT1 cells
T1 sequence (P13866 1-664): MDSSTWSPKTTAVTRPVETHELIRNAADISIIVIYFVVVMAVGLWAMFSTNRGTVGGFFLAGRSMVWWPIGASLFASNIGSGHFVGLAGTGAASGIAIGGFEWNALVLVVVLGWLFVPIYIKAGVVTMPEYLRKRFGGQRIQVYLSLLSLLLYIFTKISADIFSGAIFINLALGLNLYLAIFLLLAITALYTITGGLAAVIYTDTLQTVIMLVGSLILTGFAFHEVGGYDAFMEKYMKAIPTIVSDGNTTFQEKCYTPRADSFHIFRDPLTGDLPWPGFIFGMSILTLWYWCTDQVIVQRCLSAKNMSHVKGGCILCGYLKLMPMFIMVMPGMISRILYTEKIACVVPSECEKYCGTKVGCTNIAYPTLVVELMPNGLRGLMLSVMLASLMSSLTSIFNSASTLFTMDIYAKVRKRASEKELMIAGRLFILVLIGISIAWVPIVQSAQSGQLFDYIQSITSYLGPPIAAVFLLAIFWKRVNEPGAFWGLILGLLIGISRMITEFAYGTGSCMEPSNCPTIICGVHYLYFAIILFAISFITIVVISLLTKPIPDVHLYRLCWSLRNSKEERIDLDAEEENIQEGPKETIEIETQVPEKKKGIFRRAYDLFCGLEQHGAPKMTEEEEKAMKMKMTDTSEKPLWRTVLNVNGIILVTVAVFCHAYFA

hSGLT2 = target: T2, hSGLT2 (Homo sapiens, UniProt P31639); experiment: SGLT2 inhibition assay for validation of screening hits and similar compounds (1‐NBD‐glucose uptake, CHO‐hSGLT2 cells); type: cell-based; design: activity: dose or concentration left out as unconfirmed; settings: for remaining activity at 5 µM / remaining activity at 50 µM: 0.5 h, concentration not given, read-out: NORMALIZED SGLT2 ACTIVITY (%); for remaining activity at 5 µM / remaining activity at 50 µM / activity: mean; for SGLT2/SGLT1 ACTIVITY RATIO, first concentration / SGLT2/SGLT1 ACTIVITY RATIO, second concentration: ratio of normalized SGLT2 to SGLT1 activity; for activity: compound, normalized 1-NBD-glucose uptake, CHO-hSGLT2 cells
T2 sequence (P31639 1-672): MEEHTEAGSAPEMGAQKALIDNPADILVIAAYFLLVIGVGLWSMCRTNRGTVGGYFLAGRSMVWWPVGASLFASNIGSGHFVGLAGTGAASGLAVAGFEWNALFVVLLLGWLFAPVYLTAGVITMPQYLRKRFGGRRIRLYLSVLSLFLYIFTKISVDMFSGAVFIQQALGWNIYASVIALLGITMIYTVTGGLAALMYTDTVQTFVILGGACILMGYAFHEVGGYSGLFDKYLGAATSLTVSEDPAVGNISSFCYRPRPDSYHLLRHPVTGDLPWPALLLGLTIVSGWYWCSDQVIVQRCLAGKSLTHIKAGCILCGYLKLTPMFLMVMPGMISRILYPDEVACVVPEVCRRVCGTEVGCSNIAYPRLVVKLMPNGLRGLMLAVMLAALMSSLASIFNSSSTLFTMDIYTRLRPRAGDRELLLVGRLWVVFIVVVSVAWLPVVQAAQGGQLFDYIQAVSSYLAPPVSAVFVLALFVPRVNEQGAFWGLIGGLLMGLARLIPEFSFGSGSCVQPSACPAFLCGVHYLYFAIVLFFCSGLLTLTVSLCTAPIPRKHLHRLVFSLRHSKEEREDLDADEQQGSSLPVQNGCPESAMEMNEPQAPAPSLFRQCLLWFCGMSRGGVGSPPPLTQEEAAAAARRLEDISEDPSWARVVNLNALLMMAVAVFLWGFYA

CHO‐hSGLT1/2 cells = experiment: Cytotoxicity assay (ToxiLight, adenylate kinase leakage into CHO‐SGLT1/2 inhibition assay media); design: CYTOTOXICITY / CY[…], mean / CYTOTOXICITY (% of vehicle control) Mean / CYTOTOXICITY, mean / CY[…] (% of vehicle control) Mean: dose or concentration left out as unconfirmed; settings: for CYTOTOXICITY, mean: ToxiLight, adenylate kinase leakage;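 on all read-outs here: bioluminescent read-out of adenylate kinase released from lysed cells into the medium, given relative to DMSO vehicle control defined as 0%, higher meaning more cytolysis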
[1] = ratio of normalized SGLT2 to SGLT1 activity at 5 uM

Structure (SMILES) | remaining activity at 5 µM (SGLT1) [%] | remaining activity at 50 µM (SGLT1) [%] | remaining activity at 5 µM (hSGLT2) [%] | remaining activity at 50 µM (hSGLT2) [%] | activity (hSGLT2) [%] | SGLT2/SGLT1 ACTIVITY RATIO 5 uM Mean (hSGLT2; [1]) | also measured
Cc1cccc(C)c1NC(=O)C1CCCCN1C (racemic) [(±)-Mepivacaine HCl] | 98 | 89 | 89 | 82 |  |  | CYTOTOXICITY (CHO‐hSGLT1/2 cells; mean): 3
OC(CCN1CCCCC1)(c1ccccc1)C1CCCCC1 (racemic) [(±)-Trihexyphenidyl HCl] |  |  |  |  |  |  | SGLT2/SGLT1 ACTIVITY RATIO 5 uM Mean (hSGLT2): 1.0; SGLT2/SGLT1 ACTIVITY RATIO 50 mM Mean (hSGLT2): 1.3; CY[…] (% of vehicle control) Mean (CHO‐hSGLT1/2 cells; mean): -12 % of vehicle control
CC(=O)O[C@H]1C[C@@H](OC(C)=O)[C@@]2(C)CO[C@H]3[C@@H](O)[C@@]4(C)C5=CC[C@@H](c6ccoc6)[C@]5(C)CC[C@@H]4[C@]1(C)[C@@H]32 [1,3-Diacetylvilasinin] |  |  |  |  |  |  | SGLT2/SGLT1 ACTIVITY RATIO, first concentration (hSGLT2): 1.1; SGLT2/SGLT1 ACTIVITY RATIO, second concentration (hSGLT2): 1.1; CYTOTOXICITY, mean (CHO‐hSGLT1/2 cells): -18
Oc1c(Br)cc(Cl)c2cccnc12 [7-Bromo-5-chloro-8-hydroxyquinoline] | 103 | 45 | 92 | 78 |  |  | CYTOTOXICITY (CHO‐hSGLT1/2 cells; mean): 14
CC1(C)C(=O)C=C[C@@]2(C)C1=C(O)C(=O)[C@]1(C)[C@@H]2[C@@H](O)C[C@@]2(C)[C@H](c3ccoc3)C[C@H]3O[C@]321 [11beta-Hydroxycedrelone] |  |  |  |  |  |  | SGLT2/SGLT1 ACTIVITY RATIO, first concentration (hSGLT2): 1.7; SGLT2/SGLT1 ACTIVITY RATIO, second concentration (hSGLT2): 1.2; CYTOTOXICITY, mean (CHO‐hSGLT1/2 cells): -13
C/C=C(\C)C(=O)O[C@H]1[C@@H](OC(C)=O)c2c(ccc3ccc(=O)oc23)OC1(C)C [(+)-Praeruptorin A] |  |  |  |  | 95 | 1.0 | activity (SGLT1): 94%; CYTOTOXICITY (% of vehicle control) Mean (CHO‐hSGLT1/2 cells; mean): -5.48 % of vehicle control
CC=C(C)C(=O)O[C@H]1c2c(ccc3ccc(=O)oc23)OC(C)(C)[C@H]1OC(C)=O [(+)-Pteryxin] |  |  |  |  | 81 | 1.1 | activity (SGLT1): 75%; CYTOTOXICITY (% of vehicle control) Mean (CHO‐hSGLT1/2 cells; mean): 2 % of vehicle control
Oc1ccc(/C=C/c2cc(O)cc3c2[C@H](c2cc(O)cc(O)c2)[C@@H](c2ccc(O)cc2)O3)cc1 [(+)-e-Viniferin] | 97 | 56 | 102 | 79 |  |  | CYTOTOXICITY (CHO‐hSGLT1/2 cells; mean): 6
CN1[C@@H](CC(=O)c2ccccc2)CCC[C@H]1C[C@H](O)c1ccccc1 [(-)-Lobeline HCl] | 98 | 57 | 97 | 63 |  |  | CY[…] 50 mM (CHO‐hSGLT1/2 cells; mean, at 50 mM (so in the source)): -18
Oc1ccc(/C=C/c2cc(O)cc3c2[C@@H](c2cc(O)cc(O)c2)[C@H](c2ccc(O)cc2)O3)cc1 [(-)-e-Viniferin] | 106 | 117 | 107 | 65 |  |  | CYTOTOXICITY (CHO‐hSGLT1/2 cells; mean): -9
CCN(CC)CCOC(=O)C(c1ccccc1)c1ccccc1 [Adiphenine HCl] |  |  |  |  | 113 | 1.0 | activity (SGLT1): 108%; CY[…] (% of vehicle control) Mean (CHO‐hSGLT1/2 cells; mean): -16 % of vehicle control
O=C1c2cc(CO)cc(O)c2C(=O)c2c(O[C@@H]3O[C@H](CO)[C@@H](O)[C@H](O)[C@H]3O)cccc21 [Aloe-emodin-8-O-b-D-glucopyranoside] |  |  |  |  | 100 | 1.0 | activity (SGLT1): 100%; CYTOTOXICITY (% of vehicle control) Mean (CHO‐hSGLT1/2 cells; mean): -3.25 % of vehicle control
CN1[C@@H]2CC[C@H]1C[C@@H](OC(c1ccccc1)c1ccccc1)C2 [Benztropine mesylate] |  |  |  |  | 73 |  | CY[…] (% of vehicle control) Mean (CHO‐hSGLT1/2 cells; mean): -10 % of vehicle control
CC(C)COCC(CN(Cc1ccccc1)c1ccccc1)N1CCCC1 (stereo not shown) [Bepridil HCl] |  |  |  |  | 65 | 1.1 | CY[…] (% of vehicle control) Mean (CHO‐hSGLT1/2 cells; mean): 3.67 % of vehicle control

— paper PMC6664820, “Novel natural and synthetic inhibitors of solute carriers SGLT1 and SGLT2” (Pharmacology Research & Perspectives, 2019)
